According to patent US20050220834A1 (priority 2004, published 2005):

Tested on: bipolaris sorokininan
Assay: Seed treatment: disease prevention and yield keeping on wheat
Format: in vivo
Details: treated seeds
Procedure: Seeds treaed with FA whose weight amount to 0.2% seed by weight have disease prevention effect for bipolaris sorokininan and yield keeping effect. After the seeds were treated, the wheat developed well and occurrence of powdery mildew was less compared to blank. Yield keeping effect of mixture of FAn and triazolone was improved from 7.79% of single use of triazolone to 10.67%.

CC(C)(C)C(=O)C(Oc1ccc(Cl)cc1)n1cncn1 (stereo not shown) [triazolone]
yield keeping effect (%): 7.79%
